“And” between values parts separate entries of the source, which are not always exact repeats. Equal values may be shown once. Read-outs that look alike come from different tables or passages of the source.
Key:
[1] = Single-dose pharmacokinetics in monkeys (p.o. and i.v.); format: in vivo, monkey; details: for bioavailability: p.o. vs i.v., read-out: F (bioavailability)
[2] = Repeat-dose study in diabetic cynomolgus monkeys, serum ALT and AST; format: in vivo; details: 2.2 and 22 mg/kg, 28 treatment days
From the text: All animals aged 8–20 years had ad libitum access to water and were fed twice daily with a complete nutritionally balanced diet (Beijing Keao Xieli Feed Co., LTD, Beijing, China) enriched with seasonal fruits. The cynomolgus monkeys used in the study were cared for and handled in accordance with all applicable Association for Assessment and Accreditation of Laboratory Animal Care regulations and guidelines. […] After each treatment (weighing, bleeding, or dosing), the animals were clinically observed on the day of the procedure and, if previously anesthetized, the animals were monitored to stand up and alert. Nine selected diabetic animals were subjected to daily test compound (powder) dosing via natural feeding with bananas (n = 3). Blood from overnight-fasted animals was collected weekly in the morning for measurement of serum ALT and AST levels on days 0, 7, 14, 21, 28, and 35. Blood samples (1.5 mL) were collected from a cephalic or saphenous vein into BD Vacutainer® and K2-EDTA tubes.

[3] = target: BSEP (Homo sapiens, UniProt O95342); test: in vitro; details: membrane vesicle preparations (BSEP)
Chain of BSEP (O95342 whole entry): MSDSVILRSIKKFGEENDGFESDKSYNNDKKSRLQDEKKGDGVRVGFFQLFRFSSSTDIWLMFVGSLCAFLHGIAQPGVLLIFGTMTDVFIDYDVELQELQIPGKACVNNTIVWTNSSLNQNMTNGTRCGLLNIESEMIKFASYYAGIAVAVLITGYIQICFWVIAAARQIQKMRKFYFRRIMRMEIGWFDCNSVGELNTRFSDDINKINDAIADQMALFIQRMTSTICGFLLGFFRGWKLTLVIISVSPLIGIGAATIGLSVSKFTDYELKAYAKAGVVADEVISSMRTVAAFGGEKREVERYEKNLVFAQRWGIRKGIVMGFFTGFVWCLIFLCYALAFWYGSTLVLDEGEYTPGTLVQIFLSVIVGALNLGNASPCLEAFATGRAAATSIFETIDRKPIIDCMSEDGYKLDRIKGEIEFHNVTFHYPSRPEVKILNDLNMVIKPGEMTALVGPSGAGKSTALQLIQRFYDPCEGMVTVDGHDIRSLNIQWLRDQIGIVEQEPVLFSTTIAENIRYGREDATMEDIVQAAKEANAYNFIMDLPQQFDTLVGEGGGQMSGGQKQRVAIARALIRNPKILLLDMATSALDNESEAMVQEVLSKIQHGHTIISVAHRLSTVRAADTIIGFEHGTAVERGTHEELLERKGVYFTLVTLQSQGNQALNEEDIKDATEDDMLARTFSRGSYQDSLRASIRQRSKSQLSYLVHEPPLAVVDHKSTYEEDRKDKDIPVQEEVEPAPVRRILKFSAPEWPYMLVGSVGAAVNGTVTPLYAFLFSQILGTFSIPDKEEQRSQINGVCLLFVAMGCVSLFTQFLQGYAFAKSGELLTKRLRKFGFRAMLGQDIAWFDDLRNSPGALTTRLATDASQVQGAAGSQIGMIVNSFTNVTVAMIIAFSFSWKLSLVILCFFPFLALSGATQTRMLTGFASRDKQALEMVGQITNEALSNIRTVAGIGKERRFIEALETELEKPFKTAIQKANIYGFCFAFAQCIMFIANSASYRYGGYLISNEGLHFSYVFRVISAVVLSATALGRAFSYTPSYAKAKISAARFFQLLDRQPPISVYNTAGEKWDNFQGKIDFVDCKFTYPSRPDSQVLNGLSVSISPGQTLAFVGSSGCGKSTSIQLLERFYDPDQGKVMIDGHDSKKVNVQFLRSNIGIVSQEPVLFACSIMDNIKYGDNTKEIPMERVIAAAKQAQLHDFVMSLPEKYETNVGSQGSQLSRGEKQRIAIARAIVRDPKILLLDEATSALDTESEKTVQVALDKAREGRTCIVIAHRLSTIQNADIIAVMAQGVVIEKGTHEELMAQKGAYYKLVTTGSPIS
Method: In the vesicular transport inhibition assay (for BSEP, MRP) compounds were incubated with membrane vesicle preparations and the probe substrate. Incubations were carried out in the presence of 4 mM ATP or AMP to distinguish between transporter-mediated uptake and passive diffusion into the vesicles. For MRP2 and MRP3, reactions were carried out in the presence of 2 mM glutathione. Compounds were added to the reaction mixture in 0.75 μL of solvent (1% of the final incubation volume). […] Reactions were initiated by the addition of 25 μL of 12 mM MgATP (or 12 mM AMP in assay buffer as a background control) and preincubated separately. Reactions were quenched by the addition of 200 μL of ice-cold washing buffer and immediate filtration via glass fiber filters mounted on a 96-well plate (filter plate). The filters were washed (5 × 200 μL of ice-cold washing buffer), dried, and the amount of substrate inside the filtered vesicles was determined by liquid scintillation counting.

[4] = tested on: HepaRG spheroids; test: HepaRG 3D spheroids, cell and mitochondrial health markers, 14 days; details: for AC50: Homo sapiens, HepaRG
Method: Hepatic spheroids were formed by seeding HepaRG™ cells into round-bottom ultra-low adhesion 96-well spheroid plates (Corning®) in 3D liver media with 0.5% DMSO, 100 U/mL penicillin, and 100 mg/L streptomycin. Cells were incubated at 37°C and 5% CO2 until spheroid formation and then compound-treated. The test compound was diluted in the vehicle, and serial dilutions were made in a 0.5% vehicle in HepaRG™ induction media. […] L-buthionine sulfoximine was used as positive control for GSH content, whereas rotenone was simultaneously used as a positive control for mitochondrial dysfunction and ATP content. At the end of the incubation period, the cells were loaded with the relevant dye for each cell health marker: DNA structure–Hoescht, GSH content–mBCL, ROS formation–DHE, mitochondrial dysfunction–MitoTracker, and cellular ATP content–CellTiter-Glo®, Promega. The plate was then scanned using an automated confocal fluorescent cellular imager, ArrayScan® XTI (Thermo Scientific Cellomics) at 37°C and 5% CO2. Further, the cellular ATP content was measured using CellTiter-Glo® (Promega, USA).

## CC#C[C@@H](CC(=O)O)c1ccc(OCC(C)=C(C)C)cc1 [CPL207280]
[1]; cynomolgus, monkey, plasma, 6 mg/kg, monkey, dose 6 mg/kg, Day 1, individual animals
  Cmax: 199 ng/mL
[1]; monkey, 0,5 mg/kg i.v., 0.5 h, single animals
  plasma conc: 643.5 and 572.2
[1]; monkey, 0,5 mg/kg i.v., 1 h, single animals
  plasma conc: 149.8 and 119.5
[1]; monkey, 0,5 mg/kg i.v., 2 h, single animals
  plasma conc: 95.2 and 24.4 and 69.6
[1]; monkey, 0,5 mg/kg i.v., 4 h, single animals
  plasma conc: 49.5 and 52.7 and 23.2
[1]; monkey, 0,5 mg/kg i.v., 6 h, single animals
  plasma conc: 17.1 and 41 and 11.9
[1]; monkey, 0,5 mg/kg i.v., 8 h, single animals
  plasma conc: 17.5 and 13.5
[1]; monkey, 0,5 mg/kg i.v., 12 h, single animals
  plasma conc: 6.2 and 10.5 and 4
[1]; monkey, 0,5 mg/kg i.v., 24 h, single animals
  plasma conc: 1.1 and 1.6 and 0
[1]; monkey, 1,5 mg/kg p.o., 0 h, single animals
  plasma conc: 0
[1]; monkey, 1,5 mg/kg p.o., 0.5 h, single animals
  plasma conc: 806.5 and 1491 and 408.8
[1]; monkey, 1,5 mg/kg p.o., 1 h, single animals
  plasma conc: 1309.1 and 1299.9
[1]; monkey, 1,5 mg/kg p.o., 2 h, single animals
  plasma conc: 1251.6 and 605.2 and 1177.7
[1]; monkey, 1,5 mg/kg p.o., 4 h, single animals
  plasma conc: 75.2 and 203.9 and 54.2
[1]; monkey, 1,5 mg/kg p.o., 8 h, single animals
  plasma conc: 31 and 109.7 and 13.2
[1]; monkey, 1,5 mg/kg p.o., 12 h, single animals
  plasma conc: 13.7 and 53.4 and 8.1
[1]; monkey, 1,5 mg/kg p.o., 24 h, single animals
  plasma conc: 1.6 and 5.3 and 0
[1]; monkey, dose 6 mg/kg, Day 1, individual animals, 6 mg/kg
  exposure - AUC: 31225 ng·h/mL and 16287 ng·h/mL
[1]; monkey, plasma, 6 mg/kg, monkey, dose 6 mg/kg, Day 1, individual animals, read-out: exposure - AUC
  AUC: 18200 ng·h/mL
[1]; monkey, plasma, intravenous, 0.5 mg/kg, monkey, 0,5 mg/kg i.v., 0.5 h, single animals, read-out: plasma conc
  concentration at 0.5 h: 704 ng/mL
[1]; monkey, plasma, intravenous, 0.5 mg/kg, monkey, 0,5 mg/kg i.v., 1 h, single animals, read-out: plasma conc
  concentration at 1 h: 198 ng/mL
[1]; monkey, plasma, intravenous, 0.5 mg/kg, monkey, 0,5 mg/kg i.v., 8 h, single animals, read-out: plasma conc
  concentration at 8 h: 10.2 ng/mL
[1]; monkey, plasma, intravenous, monkeys, single dose
  k el: 5.56e-05 s⁻¹
[1]; monkey, plasma, iv, 0.5 mg/kg, monkeys, 0,5 mg/kg i.v., n = 3
  Cmax: 3120 ± 161 ng/mL
[1]; monkey, plasma, iv, 0.5 mg/kg, monkeys, 0,5 mg/kg i.v.
  Tmax: 4.98 min
[1]; monkey, plasma, iv, 0.5 mg/kg, monkeys, 0,5 mg/kg i.v., read-out: AUC
  AUC: 1370 ± 194 ng·h/mL
[1]; monkey, plasma, oral, 1.5 mg/kg, monkey, 1,5 mg/kg p.o., 0 h, single animals, read-out: plasma conc
  concentration at 0 h: 0 ng/mL
[1]; monkey, plasma, oral, 1.5 mg/kg, monkey, 1,5 mg/kg p.o., 1 h, single animals, read-out: plasma conc
  concentration at 1 h: 2250 ng/mL
[1]; monkey, plasma, oral, 1.5 mg/kg, monkeys
  bioavailability: ~99%
[1]; monkey, plasma, po, 1.5 mg/kg, monkeys, 1,5 mg/kg p.o., n = 3
  Cmax: 1680 ± 502 ng/mL
[1]; monkey, plasma, po, 1.5 mg/kg, monkeys, 1,5 mg/kg p.o.
  Tmax: 60 min
[1]; monkey, plasma, po, 1.5 mg/kg, monkeys, 1,5 mg/kg p.o., read-out: AUC
  AUC: 4060 ± 794 ng·h/mL
[1]; monkey, plasma, po, 1.5 mg/kg, monkeys
  bioavailability: 99%
[2]
  liver safety markers (ALT, AST) vs vehicle group: none of the doses altered liver safety markers
[3]
  IC50: > 100 µM
[4]; CONC 0.0457 uM, TIMEPOINT 336
  Cellular ATP Mean Plotted Value: 0.883
  DNA structure Mean Plotted Value: 1.26
  Glutathione content Mean Plotted Value: 0.866
  Mitochondrial mass Mean Plotted Value: 0.982
  Mitochondrial membrane potential Mean Plotted Value: 1.25
  Oxidative stress Mean Plotted Value: 1.15
  Spheroid count Mean Plotted Value: 1
  Spheroid size Mean Plotted Value: 0.924
[4]; CONC 0.137 uM, TIMEPOINT 336
  Cellular ATP Mean Plotted Value: 1.01
  DNA structure Mean Plotted Value: 1.14
  Glutathione content Mean Plotted Value: 1.11
  Mitochondrial mass Mean Plotted Value: 0.911
  Mitochondrial membrane potential Mean Plotted Value: 0.948
  Oxidative stress Mean Plotted Value: 1.02
  Spheroid count Mean Plotted Value: 1
  Spheroid size Mean Plotted Value: 0.943
[4]; CONC 0.412 uM, TIMEPOINT 336
  Cellular ATP Mean Plotted Value: 1.03
  DNA structure Mean Plotted Value: 1.12
  Glutathione content Mean Plotted Value: 1.09
  Mitochondrial mass Mean Plotted Value: 1
  Mitochondrial membrane potential Mean Plotted Value: 0.994
  Oxidative stress Mean Plotted Value: 1.02
  Spheroid count Mean Plotted Value: 1
  Spheroid size Mean Plotted Value: 0.942
[4]; CONC 3.7 uM, TIMEPOINT 336
  Cellular ATP Mean Plotted Value: 0.907
  DNA structure Mean Plotted Value: 0.692
  Glutathione content Mean Plotted Value: 0.924
  Mitochondrial mass Mean Plotted Value: 0.944
  Mitochondrial membrane potential Mean Plotted Value: 0.773
  Oxidative stress Mean Plotted Value: 1.02
  Spheroid count Mean Plotted Value: 1
  Spheroid size Mean Plotted Value: 0.935
[4]; CONC 33.3 uM, TIMEPOINT 336
  Cellular ATP Mean Plotted Value: 0.845
  DNA structure Mean Plotted Value: 0.889
  Glutathione content Mean Plotted Value: 0.907
  Mitochondrial mass Mean Plotted Value: 0.989
  Mitochondrial membrane potential Mean Plotted Value: 0.908
  Oxidative stress Mean Plotted Value: 1.13
  Spheroid count Mean Plotted Value: 1
  Spheroid size Mean Plotted Value: 0.953
[4]; CONC 100 uM, TIMEPOINT 336
  Cellular ATP Mean Plotted Value: 0.491
  DNA structure Mean Plotted Value: 0.692
  Glutathione content Mean Plotted Value: 0.767
  Mitochondrial mass Mean Plotted Value: 0.865
  Mitochondrial membrane potential Mean Plotted Value: 0.94
  Oxidative stress Mean Plotted Value: 1.13
  Spheroid count Mean Plotted Value: 1
  Spheroid size Mean Plotted Value: 0.861
[4]; HepaRG spheroid, TIMEPOINT 336
  Cellular ATP MEC: 24.8 (NS) uM
[4]; HepaRG spheroid, TIMEPOINT 336, at the concentration (uM) given
  Cellular ATP MR (% @ concentration): 48%
[4]; HepaRG spheroid, TIMEPOINT 336, plotted value at the concentration given
  Cellular ATP MR: 0.491
[4]; 336 h, read-out: Estimated AC50 (95% CI), Cellular ATP
  AC50: > 100 µM
[4]; 336 h, read-out: Estimated AC50 (95% CI), DNA structure
  AC50: > 100 µM
[4]; 336 h, read-out: Estimated AC50 (95% CI), Glutathione content
  AC50: > 100 µM
[4]; 336 h, read-out: Estimated AC50 (95% CI), Mitochondrial mass
  AC50: > 100 µM
[4]; 336 h, read-out: Estimated AC50 (95% CI), Mitochondrial membrane potential
  AC50: > 100 µM
[4]; 336 h, read-out: Estimated AC50 (95% CI), Oxidative stress
  AC50: > 100 µM
[4]; 336 h, read-out: Estimated AC50 (95% CI), Spheroid count
  AC50: > 100 µM
[4]; 336 h, read-out: Estimated AC50 (95% CI), Spheroid size
  AC50: > 100 µM
[4]; read-out: DNA structure AC50
  AC50: > 100 µM
[4]; read-out: Glutathione content AC50
  AC50: > 100 µM
[4]; read-out: Mitochondrial mass AC50
  AC50: > 100 µM
[4]; read-out: Mitochondrial membrane potential AC50
  AC50: > 100 µM
[4]; read-out: Oxidative stress AC50
  AC50: > 100 µM
[4]; read-out: Spheroid count AC50
  AC50: > 100 µM
[4]; read-out: Spheroid size AC50
  AC50: > 100 µM
[4]; summary comparison CPL207280 vs TAK-875
  Mitochondria Injury: <
